According to the supplement of paper PMC10307832:

Key:
Experiment in all cases: relative viability (nuclei count vs DMSO), 5 days (fraction); higher = more cells survive
[1] = compound: Cn1cc(-c2cnn3c(N)c(Br)c([C@@H]4CCCNC4)nc23)cn1 + COc1cccc2cc(-c3nc([C@H]4CC[C@H](C(=O)O)CC4)n4ncnc(N)c34)[nH]c12 [OSI-027] (partner 0.5 µM)
Outline: (§1)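 Five library-drug doses in √10 steps were combined with a fixed anchor-drug dose, or a single drug was given alone, by pin tool to lung cancer cell lines in 1536-well plates the day after seeding. Nuclei were stained and counted after 5 days. Relative viability is the nuclei count in treated wells over that in vehicle wells, taken as the median of duplicate plates.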

[2] = compound: Cn1cc(-c2cnn3c(N)c(Br)c([C@@H]4CCCNC4)nc23)cn1 + C[C@@H](Oc1cc(-c2cnn(C3CCNCC3)c2)cnc1N)c1c(Cl)ccc(F)c1Cl [Crizotinib] (partner 1 µM)
Outline: as §1

[3] = compound: Cn1cc(-c2cnn3c(N)c(Br)c([C@@H]4CCCNC4)nc23)cn1 + C[C@]1(O)C[C@@H](c2nc(-c3ccc4ccc(-c5ccccc5)nc4c3)c3c(N)nccn32)C1 [Linsitinib] (partner 1 µM)
Outline: as §1

[4] = compound: Cn1cc(-c2cnn3c(N)c(Br)c([C@@H]4CCCNC4)nc23)cn1 + Cc1cc(Nc2cc(N3CCN(C)CC3)nc(Sc3ccc(NC(=O)C4CC4)cc3)n2)n[nH]1 [Tozasertib] (partner 0.1 µM)
Outline: as §1

Row | Cell Line | relative viability ([1]; first compound 0.05 µM) | relative viability ([1]; first compound 0.1581 µM) | relative viability ([1]; first compound 0.5 µM) | relative viability ([1]; first compound 1.581 µM) | relative viability ([1]; first compound 5 µM) | relative viability ([2]; first compound 0.05 µM) | relative viability ([2]; first compound 0.1581 µM) | relative viability ([2]; first compound 0.5 µM) | relative viability ([2]; first compound 1.581 µM) | relative viability ([2]; first compound 5 µM) | relative viability ([3]; first compound 0.05 µM) | relative viability ([3]; first compound 0.1581 µM) | relative viability ([3]; first compound 0.5 µM) | relative viability ([3]; first compound 1.581 µM) | relative viability ([3]; first compound 5 µM) | relative viability ([4]; first compound 0.05 µM) | relative viability ([4]; first compound 0.1581 µM) | relative viability ([4]; first compound 0.5 µM) | relative viability ([4]; first compound 1.581 µM) | relative viability ([4]; first compound 5 µM)
1 | LU99A | 0.285 | 0.309 | 0.242 | 0.261 | 0.207 | 0.55 | 0.573 | 0.551 | 0.482 | 0.31 | 0.533 | 0.622 | 0.496 | 0.557 | 0.422 | 0.271 | 0.243 | 0.258 | 0.243 | 0.193
2 | NCI-H1355 | 0.442 | 0.469 | 0.416 | 0.372 | 0.328 | 0.984 | 1.12 | 1.07 | 1.01 | 0.698 | 0.798 | 0.911 | 0.738 | 0.82 | 0.814 | 0.553 | 0.614 | 0.509 | 0.45 | 0.423
3 | NCI-H520 | 0.214 | 0.215 | 0.269 | 0.265 | 0.288 | 0.743 | 0.821 | 0.694 | 0.601 | 0.589 | 0.991 | 0.939 | 0.931 | 0.733 | 0.561 | 0.471 | 0.397 | 0.41 | 0.444 | 0.342
4 | NCI-H661 | 0.711 | 0.789 | 0.718 | 0.513 | 0.511 | 1.15 | 1.23 | 1.12 | 1.05 | 0.98 | 0.557 | 0.592 | 0.579 | 0.479 | 0.314 | 0.344 | 0.343 | 0.371 | 0.372 | 0.379
5 | NCI-H650 | 0.571 | 0.503 | 0.54 | 0.476 | 0.485 | 0.778 | 0.708 | 0.706 | 0.627 | 0.606 | 0.808 | 0.775 | 0.846 | 0.795 | 0.657 | 0.732 | 0.753 | 0.821 | 0.654 | 0.603
6 | NCI-H647 | 0.66 | 0.718 | 0.612 | 0.588 | 0.479 | 1.27 | 1.33 | 0.883 | 0.675 | 0.232 | 1.12 | 1.24 | 0.85 | 0.796 | 0.42 | 0.329 | 0.312 | 0.0065 | 0.182 | 0.173
7 | 201T | 0.777 | – | 0.656 | 0.532 | 0.241 | 1.03 | 1.03 | 1.06 | 1.05 | 1.07 | 1.08 | 1.05 | 1.12 | 0.97 | 0.936 | 0.932 | 0.992 | 0.898 | 0.776 | 0.758
8 | NCI-H838 | 0.386 | 0.416 | 0.371 | 0.367 | 0.338 | 0.925 | 0.987 | 0.783 | 0.785 | 0.561 | 0.984 | 1.09 | 0.987 | 0.824 | 0.962 | 0.272 | 0.244 | 0.312 | 0.264 | 0.19
